Key:
[1] = test system: NMDA-induced death; assay: NMDA test (25 mg/kg i.v.), prevention of NMDA-induced death (neuroprotective efficacy); format: in vivo, male NMRI mice; conditions: Mus musculus, po, NMDA 25 mg/kg i.v.; for ED50: 1 h, dose protecting 50% of animals against NMDA-induced death one hour after application; for responders at 100 mg/kg: 100 mg/kg p.o. 1 h before test; for responders at 25 mg/kg: 25 mg/kg p.o. 1 h before test; for responders at 5 mg/kg: 5 mg/kg p.o. 1 h before test
Procedure: In order to determine the neuroprotective and anticonvulsive activity of the compounds in accordance with the invention of the general formula I, two slightly different methods were employed as follows: […]
1. In order to determine the neuroprotective efficacy NMDA at a rate of 25 mg/kg/10 ml was administered intravenously to male NMRI mice with a body weight of 20 to 25 g. As a consequence of this application the animals suffer clonic and partly tonic convulsions, which lead to death. As a criterion for the efficacy of the investigated compounds prevention of death is used.
All animals used in the investigations had free access to food and water prior to the experiments. The test and reference substances were all administered as a suspension in 0.2% agar or water, partly by the intermediary of solution promoters such as for instance PEG-400, perorally using an esophageal probe. Control animals received the same volumes of the solvent with optional solution promoters. One hour after the application of the substance NMDA was administered intravenously and the animals observed for the occurrence of convulsions.
In table 1 the results of the tests (NMDA 25 mg i.v.) performed in accordance with method 1 are compiled with dosages of 5-100 mg of the compounds in accordance with the invention per kg of body weight as compared with known NMDA-antagonists. As a percentage efficacy the percentage of surviving animals is used.
The determination of the ED50 values was performed in accordance with the method described in Lichtfield and Wilcoxon, J. Pharmacol. exp. Therapeut. 96, 99 (1949) in each case with 4 to 5 groups of 10 animals per dosage rate.

[2] = test system: ovalbumin-induced anaphylactic paw edema; assay: Passive rat paw anaphylaxy (inhibition of edema volume; antiallergic and anti-inflammatory); format: in vivo, male Sprague-Dawley rats; conditions: for inhibition in vivo at 25 mg/kg: 25 mg/kg p.o. 1 h before test; for inhibition in vivo at 30 mg/kg: 30 mg/kg p.o. 1 h before test
Procedure: The determination of the antiallergic and anti-inflammatory properties of the compounds in accordance with the invention was using a passive rat paw anaphylaxy model.
Male Sprague-Dawley rats were utilized for all tests. The animals were kept under standardized environmental conditions with free access to food and water. For sensitization to the antigen 100 μl of a mouse antiserum to ovalbumin was injected sublplantarly into the left rear paw. […] The opposite paw was for control injected subplantarly only with 100 μl of the solvent (sterile physiological NaCl solution). Overnight the investigated animals were deprived of food but had water ad lib.
Per group in all tests between 6 and 8 animals were used. One hour later the anaphylactic reaction was caused by the intravenous injection of 10 mg/10 ml/kg ovalbumin in physiological NaCl solution. […] The edema volume was calculated from the difference between the values of the two paws. The antiallergic action is in this case expressed as a percentage inhibition of the edema volume of the animals in the test group as compared with control groups undergoing parallel investigation. […] The determination of the ED50 values was performed by linear regression after log transformation of the administered doses, at least three dosage rates being employed.

[3] = read-out: Protective action (percentage of surviving animals)
[4] = Rattus norvegicus, po, read-out: Protective action (percentage inhibition of edema volume)
[5] = Rattus norvegicus, po, p.o. 1 h before test, linear regression after log transformation of doses

## COc1cc2oc(=O)ccc2cc1OCC(O)CN1CCC(C(O)(c2ccc(F)cc2)c2ccc(F)cc2)CC1 (racemic) [Example 25, (±)-6-{3-[4-(bis(4-fluorophenyl)hydroxymethyl)-1-piperidinyl]-2-hydroxypropoxy}-7-methoxy-2H-1-benzopyran-2-one]
[1]
  ED50: 77 mg/kg
[1]; [3]
  responders at 100 mg/kg: 100%
[2]; [4]
  inhibition in vivo at 25 mg/kg: 43%

## COc1cc2ccc(=O)oc2cc1OCCCN1CCN(C(c2ccc(F)cc2)c2ccc(F)cc2)CC1 [Example 8, 7-{3-[4-(bis(4-fluorophenyl)methyl)-1-piperazinyl]propoxy}-6-methoxy-2H-1-benzopyran-2-one]
[1]; [3]
  responders at 100 mg/kg: 62.5%
[2]; [4]
  inhibition in vivo at 25 mg/kg: 35%

## CC(C)Oc1cc2ccc(=O)oc2cc1OCCCN1CCC(c2ccccc2)CC1 [Example 12, 6-(1-methylethoxy)-7-[3-(4-phenyl-1-piperidinyl)propoxy]-2H-1-benzopyran-2-one]
[1]; [3]
  responders at 25 mg/kg: 62.5%
[2]; [4]
  inhibition in vivo at 25 mg/kg: 12%

## COc1cc2ccc(=O)oc2cc1OCCCN1CCC(C(O)(c2ccc(F)cc2)c2ccc(F)cc2)CC1 [Example 14, 7-{3-[4-(bis(4-fluorophenyl)hydroxymethyl)-1-piperidinyl]propoxy}-6-methoxy-2H-1-benzopyran-2-one]
[1]; [3]
  responders at 25 mg/kg: 37.5%
[2]; 25 mg/kg p.o.
  Action remains for a period with full effect: 24 h
[2]; [4]
  inhibition in vivo at 25 mg/kg: 81%
[2]; [5]
  ED50: 2.4 mg/kg

## COc1cc2oc(=O)ccc2cc1OCCCN1CCC(=C(c2ccc(F)cc2)c2ccc(F)cc2)CC1 [Example 15, 6-{3-[4-(bis(4-fluorophenyl)methylene)-1-piperidinyl]propoxy}-7-methoxy-2H-1-benzopyran-2-one]
[1]; [3]
  responders at 25 mg/kg: 50%
[2]; [4]
  inhibition in vivo at 25 mg/kg: 60%

## COc1cc2oc(=O)ccc2cc1OCCCN1CCC(C(c2ccccc2)c2ccccc2)CC1 [Example 16, 6-{3-[4-(diphenylmethyl)-1-piperidinyl]propoxy}-7-methoxy-2H-1-benzopyran-2-one]
[1]; [3]
  responders at 100 mg/kg: 75%
[2]; [4]
  inhibition in vivo at 25 mg/kg: 60%

## COc1cc2ccc(=O)oc2cc1OCCCN1CCC(C(O)(c2ccccc2)c2ccccc2)CC1 [Example 17, 7-{3-[4-(diphenylhydroxymethyl)-1-piperidinyl]-propoxy}-6-methoxy-2H-1-benzopyran-2-one]
[1]; [3]
  responders at 100 mg/kg: 37.5%
[2]; [4]
  inhibition in vivo at 25 mg/kg: 83%

## COc1cc2oc(=O)cc(C)c2cc1OCCCN1CCN(c2ccccc2)CC1 [Example 26, 7-methoxy-4-methyl-6-[3-(4-phenyl-1-piperazinyl)propoxy]-2H-1-benzopyran-2-one]
[1]; [3]
  responders at 25 mg/kg: 62.5%
[2]; [4]
  inhibition in vivo at 25 mg/kg: 66%

## COc1cc2oc(=O)cc(C)c2cc1OCCCN1CCC(c2ccccc2)CC1 [Example 27, 7-methoxy-4-methyl-6-[3-(4-phenyl-1-piperidinyl)propoxy]-2H-1-benzopyran-2-one]
[1]; [3]
  responders at 25 mg/kg: 50%
[2]; [4]
  inhibition in vivo at 25 mg/kg: 40%

## COc1cc2oc(=O)c(C)c(C)c2cc1OCCCN1CCN(c2ccccc2)CC1 [Example 28, 7-methoxy-3,4-dimethyl-6-[3-(4-phenyl-1-piperazinyl)propoxy]-2H-1-benzopyran-2-one]
[1]; [3]
  responders at 25 mg/kg: 87.5%
[2]; [4]
  inhibition in vivo at 25 mg/kg: 72%

## COc1cc2oc(=O)cc(-c3ccccc3)c2cc1OCCCN1CCN(c2ccccc2)CC1 [Example 39, 7-methoxy-4-phenyl-6-[3-(4-phenyl-1-piperazinyl)propoxy]-2H-1-benzopyran-2-one]
[1]; [3]
  responders at 25 mg/kg: 62.5%
[2]; [4]
  inhibition in vivo at 25 mg/kg: 26%

## COc1cc2oc(=O)cc(-c3ccccc3)c2cc1OCCCN1CCC(c2ccccc2)CC1 [Example 40, 7-methoxy-4-phenyl-6-[3-(4-phenyl-1-piperidinyl)propoxy]-2H-1-benzopyran-2-one]
[1]; [3]
  responders at 100 mg/kg: 37.5%
[2]; [4]
  inhibition in vivo at 25 mg/kg: 27%

## COc1cc2oc(=O)c3c(c2cc1OCCCN1CCN(c2ccccc2C)CC1)CCC3 [Example 59, 2,3-dihydro-7-methoxy-8-{3-[4-(2-methylphenyl)-1-piperazinyl]propoxy}cyclopenta[c][1]benzopyran-4(1H)-one]
[1]
  ED50: 1.1 mg/kg
[1]; [3]
  responders at 5 mg/kg: 100%

## COc1cc2oc(=O)c3c(c2cc1OCCCN1CCN(c2ccccc2O)CC1)CCC3 [Example 60, 2,3-dihydro-8-{3-[4-(2-hydroxyphenyl)-1-piperazinyl]propoxy}-7-methoxy-cyclopenta[c][1]benzopyran-4(1H)-one]
[1]; [3]
  responders at 5 mg/kg: 62.5%

## COc1cc2oc(=O)c3c(c2cc1OCCCN1CCN(c2ccc([N+](=O)[O-])cc2)CC1)CCC3 [Example 61, 2,3-dihydro-7-methoxy-8-{3-[4-(4-nitrophenyl)-1-piperazinyl]propoxy}cyclopenta[c][1]benzopyran-4(1H)-one]
[1]; [3]
  responders at 100 mg/kg: 25%

## COc1cc2oc(=O)c3c(c2cc1OCCCN1CCN(c2ccccn2)CC1)CCC3 [Example 62, 2,3-dihydro-7-methoxy-8-{3-[4-(2-pyridinyl)-1-piperazinyl]propoxy}cyclopenta[c][1]benzopyran-4(1H)-one]
[1]; [3]
  responders at 25 mg/kg: 87.5%

## COc1cc2oc(=O)c3c(c2cc1OCCCN1CCN(c2ncccn2)CC1)CCC3 [Example 63, 2,3-dihydro-7-methoxy-8-{3-[4-(2-pyrimidinyl)-1-piperazinyl]propoxy}cyclopenta[c][1]benzopyran-4(1H)-one]
[1]; [3]
  responders at 25 mg/kg: 12.5%

## COc1cc2oc(=O)c3c(c2cc1OCCCN1CCC(Cc2ccccc2)CC1)CCC3 [Example 64]
[1]; [3]
  responders at 25 mg/kg: 75%

## COc1cc2oc(=O)c3c(c2cc1OCCCN1CCC(C(O)(c2ccc(F)cc2)c2ccc(F)cc2)CC1)CCC3 [Example 65, 8-{3-[4-(bis(4-fluorophenyl)hydroxymethyl)-1-piperidinyl]propoxy}-2,3-dihydro-7-methoxy-cyclopenta[c][1]benzopyran-4(1H)-one]
[1]; [3]
  responders at 100 mg/kg: 12.5%

## COc1cc2oc(=O)c3c(c2cc1OCCCN1CCN(c2ccccc2F)CC1)CCC3 [Example 66, 8-{3-[4-(2-fluorophenyl)-1-piperazinyl]propoxy}-2,3-dihydro-7-methoxy-cyclopenta[c][1]benzopyran-4(1H)-one]
[1]; [3]
  responders at 5 mg/kg: 100%

## COc1ccc(CCN2CCC(Nc3nc4ccccc4n3Cc3ccc(F)cc3)CC2)cc1 [astemizole, reference compound]
[2]; Rattus norvegicus, po, 10 mg/kg p.o. 1 h before test, read-out: Protective action (percentage inhibition of edema volume)
  inhibition in vivo at 10 mg/kg: 70%
[2]; [5]
  ED50: 3.1 mg/kg

## O=C(O)c1cc(=O)c2c(OCC(O)COc3cccc4oc(C(=O)O)cc(=O)c34)cccc2o1 [cromoglycate, reference compound]
[2]; Rattus norvegicus, 2.25 mg/kg, intravenous immediately prior to test, read-out: Protective action (percentage inhibition of edema volume)
  inhibition in vivo at 2.25 mg/kg: 58%
[2]; Rattus norvegicus, intravenous treatment immediately prior to test (footnote), head says p.o.
  ED50: 1.1 mg/kg
[2]; oral
  oral effectiveness: orally not effective

## CN(C)CCOC(c1ccccc1)c1ccccc1 [diphenhydramine, reference compound]
[2]; Rattus norvegicus, po, 100 mg/kg p.o. 1 h before test, read-out: Protective action (percentage inhibition of edema volume)
  inhibition in vivo at 100 mg/kg: 54%
[2]; [5]
  ED50: 73 mg/kg

## CNC1(c2ccccc2Cl)CCCCC1=O (stereo not shown) [ketamine, reference compound]
[1]; 20 mg/kg p.o. 1 h before test, read-out: Protective action (percentage of surviving animals)
  responders at 20 mg/kg: 0%

## CN1CCC(=C2c3ccccc3CC(=O)c3sccc32)CC1 [ketotifen, reference compound]
[2]; [4]
  inhibition in vivo at 30 mg/kg: 77%
[2]; [5]
  ED50: 5.6 mg/kg

## O=c1[nH]c2ccccc2n1CCCN1CCN(C(c2ccccc2)c2ccccc2)CC1 [oxatomide, reference compound]
[2]; [4]
  inhibition in vivo at 30 mg/kg: 75%
[2]; [5]
  ED50: 7.3 mg/kg

## Cc1c(C)c2ccc(OCCCN3CCN(Cc4ccc(Cl)cc4)CC3)cc2oc1=O [picumast, reference compound]
[2]; [4]
  inhibition in vivo at 25 mg/kg: -21%

From patent US5428038A, “Benzopyranones, a method for producing them and uses therefor” (Dr. Willmar Schwabe GmbH & Co., priority 1991, dated 1995)
